Data from patent US20100233086A1, “COMPOUNDS FOR USE IN IMAGING, DIAGNOSING AND/OR TREATMENT OF DISEASES OF THE CENTRAL NERVOUS SYSTEM OR OF TUMORS” (priority 2007, published 2010).
Entries after “also recorded” stand apart in the source; their conditions may differ.

Experiments:
MAO B = target: T1, MAO B (Homo sapiens, UniProt P27338); assay: Autoradiography of [^18F]compound 13 on human brain sections (Alzheimer's disease), blocking with MAO B inhibitors; type: binding
T1 construct: investigated on human brain sections from patients with Alzheimer's disease and normal controls; from tissue; host or cells: human brain sections (Alzheimer's disease patients and normal controls)
T1 sequence (P27338 1-520): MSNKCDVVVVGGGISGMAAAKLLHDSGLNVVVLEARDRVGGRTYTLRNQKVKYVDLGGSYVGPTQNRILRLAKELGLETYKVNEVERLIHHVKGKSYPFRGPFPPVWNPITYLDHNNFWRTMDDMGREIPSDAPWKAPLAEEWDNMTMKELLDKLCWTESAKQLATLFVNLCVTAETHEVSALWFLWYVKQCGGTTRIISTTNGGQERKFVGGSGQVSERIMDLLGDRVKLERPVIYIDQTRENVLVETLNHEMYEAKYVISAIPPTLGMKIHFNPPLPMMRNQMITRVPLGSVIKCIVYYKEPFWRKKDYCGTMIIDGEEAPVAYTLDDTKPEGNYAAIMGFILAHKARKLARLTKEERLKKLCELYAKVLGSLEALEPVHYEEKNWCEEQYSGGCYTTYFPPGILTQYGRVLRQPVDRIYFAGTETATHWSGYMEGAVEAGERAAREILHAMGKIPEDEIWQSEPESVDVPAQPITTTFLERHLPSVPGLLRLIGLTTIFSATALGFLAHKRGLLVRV
Method: Thereafter, the slides were removed and brought to room temperature. […] The sections were dipped two times into ice cold distilled water, dried at room temperature and exposed to PhosphorImanger plates (FUJI BAS 5000) over night. For detection of the specificity of the signals an excess (10 μM) of Deprenyl, Pargylin (both for MAO B) and Clorgyline (for MAO A), respectively, was used. After exposure, the sections were immunohistochemically stained using a standard protocol with an anti-GFAP antibody to detect reactive astrocytes. Amyloid B plaques were detected with BAY 949172 (Rowe CC et al. Lancet Neutol 2008; 7: 129-135) using the binding protocol as described above.

[1] = Biodistribution in NMRI mice (gamma counter); type: in vivo; conditions: 0.178 MBq injected, decay corrected
Method: For each time point 3 mice have been used. The mice were injected each with 0.178 MBq[^18F]compound 13. After the respective time points the mice were sacrificed, the organs taken out and measured in a gamma counter. The results were decay corrected.

[2] = Plasma radioactivity and plasma metabolites in cynomolgus monkey; type: in vivo
From the text: Plasma radioactivity profiles have been monitored over time. […] In addition, metabolites occurring in plasma over time have been monitored (FIGS. 8 and 9) for both ligands.

[3] = PET brain uptake (time activity curves, SUV) in cynomolgus monkey; conditions: same monkey
[4] = reported in the literature; cited from earlier work

Compound | relation of autoradiographic signal density and intensity to amyloid β pathology (MAO B; Alzheimer's disease brain slices, amyloid detected with BAY 949172) | autoradiographic signal blocked with deprenyl (MAO B; human Alzheimer's disease brain slices, 10 Bq/μl tracer, excess (10 μM) of Deprenyl) | autoradiographic signal blocked with pargylin (MAO B; human Alzheimer's disease brain slices, 10 Bq/μl tracer, excess (10 μM) of Pargylin) | relation of autoradiographic signal to reactive astrocytes (GFAP immunoreactivity) (MAO B; human brain slice from a patient with AD, anti-GFAP staining) | brain uptake of radioactivity ([1]; 2 min p.i.) [% ID/g] | radioactivity in brain ([1]; 30 min p.i.) [% ID/g] | radioactivity in brain ([1]; after 4 hours) [% ID/g] | metabolic stability compared to [^11C]Deprenyl (and compound 5) ([2]; plasma metabolites) | generation of metabolite b in plasma (level) ([2]; plasma over time) | uptake and enrichment in specific regions, e.g. striatum, higher than [^11C]Deprenyl [3] | degradation to metabolite [4]
C#CCN(C)[C@H](C[18F])Cc1ccccc1 [[^18F]compound 13, N-[(2S)-1-(^18F)fluoro-3-phenylpropan-2-yl]-N-methylprop-2-yn-1-amine] | corresponds with the amyloid β plaque load | could be blocked; also recorded: completely blocked | could be blocked | correspondence of the autoradiographic signal to reactive astrocytes is demonstrated | 7.5 ± 0.04 | 2.10±0.33 | 1.34±0.26 | improved metabolic stability; also recorded: more stable | around 10% | about 10% | 
C#CCN(C)CCCCCC[18F] [compound 5] |  |  |  |  |  |  |  |  |  |  | degraded quickly towards a polar [^18F]-labelled metabolite
